Results: the Deep4Chem optical property database

Experiment: solvent given as SMILES

Brc1c(Br)c2ccc3c(Br)c(Br)c4ccc5ccc1c1c5c4c3c21
fluorescence lifetime (in C1CCCCC1): 0.058 ns

[O-][n+]1c(-c2ccc(Br)cc2)cc(N2CCOCC2)nc1/C=C/c1ccccc1
fluorescence lifetime (in ClCCl): 3.7 ns

CCCCCCCCCCOc1ccc(C#Cc2ccc(C#Cc3ccc(OCCCCCCCCCC)c(OCCCCCCCCCC)c3)c3nc4c5ccccc5c5ccccc5c4nc23)cc1OCCCCCCCCCC
fluorescence lifetime (in C1CCOC1): 8.24 ns | fluorescence lifetime (in Cc1ccccc1): 7.1 ns | fluorescence lifetime (in ClCCl): 8.66 ns

C[Si]1(C)c2ccc(-c3cccs3)cc2C=Cc2cc(-c3cccs3)ccc21
fluorescence lifetime (in ClCCl): 2 ns

CC1=CC(C)=[N+]2C1=C(c1ccccc1)c1c(C)cc(C)n1[B-]2(F)F
fluorescence lifetime (in C1CCOC1): 3.73 ns | fluorescence lifetime (in CC#N): 3.81 ns | fluorescence lifetime (in CC(=O)C(C)(C)C): 3.39 ns | fluorescence lifetime (in CC(C)=O): 3.65 ns | fluorescence lifetime (in CCCCCC): 3.37 ns | fluorescence lifetime (in CCOC(C)=O): 3.98 ns | fluorescence lifetime (in CO): 3.9 ns | fluorescence lifetime (in Cc1ccccc1): 3.4 ns | fluorescence lifetime (in ClCCl): 3.97 ns

C[n+]1ccn(CCCCc2ccc3c(c2)c2ccccc2n3-c2cc(C#N)c(C#N)cc2-n2c3ccccc3c3cc(CCCCn4cc[n+](C)c4)ccc32)c1
fluorescence lifetime (in CC#N): 4.97 ns

CCOC(=O)c1ccc(C2=CC3=c4cc(-c5ccc(C(=O)OCC)cc5)c5nc(C(F)(F)C(F)(F)C(F)(F)F)nc6c(-c7ccc(C(=O)OCC)cc7)cc(c4c65)C4=CC(c5ccc(C(=O)OCC)cc5)=C5N=C(C(F)(F)C(F)(F)C(F)(F)F)N=C2C5C43)cc1 (centres undefined)
fluorescence lifetime (in C1CCOC1): 2.8 ns

c1ccc(C(=C(c2ccccc2)c2ccc(-c3ccc(-c4nc5c(-c6ccc(-c7ccc(C(=C(c8ccccc8)c8ccccc8)c8ccccc8)cc7)cc6)sc(-c6ccc(-c7ccc(C(=C(c8ccccc8)c8ccccc8)c8ccccc8)cc7)cc6)c5nc4-c4ccc(-c5ccc(C(=C(c6ccccc6)c6ccccc6)c6ccccc6)cc5)cc4)cc3)cc2)c2ccccc2)cc1
fluorescence lifetime (in ClCCl): 6.7 ns

COC(=O)C(Cc1ccc2oc(-c3ccc(N(C)c4ccccc4)cc3)nc2c1)NC(=O)OC(C)(C)C (centres undefined)
fluorescence lifetime (in C1CCCCC1): 1.81 ns | fluorescence lifetime (in C1CCOC1): 5.29 ns | fluorescence lifetime (in C1COCCO1): 4.14 ns | fluorescence lifetime (in CC1CCCO1): 4.37 ns | fluorescence lifetime (in CC1COC(=O)O1): 4.3 ns | fluorescence lifetime (in CC#N): 4.23 ns | fluorescence lifetime (in CC(C)=O): 5.11 ns | fluorescence lifetime (in CC(C)CC(C)(C)C): 1.7 ns | fluorescence lifetime (in CC(C)CO): 4.24 ns | fluorescence lifetime (in CC(C)O): 4.41 ns | fluorescence lifetime (in CC(O)CO): 0.88 ns | fluorescence lifetime (in CCC(C)CC): 1.67 ns | fluorescence lifetime (in CCCCC): 1.88 ns | fluorescence lifetime (in CCCCCC): 1.66 ns | fluorescence lifetime (in CCCCCCCCC): 1.78 ns | fluorescence lifetime (in CCCCCCCCCC): 1.79 ns | fluorescence lifetime (in CCCCCCCO): 4.34 ns | fluorescence lifetime (in CCCCCCO): 4.64 ns | fluorescence lifetime (in CCCCCO): 5.44 ns | fluorescence lifetime (in CCCCO): 3.97 ns | fluorescence lifetime (in CCO): 1.59 ns | fluorescence lifetime (in CCOC(C)=O): 4.68 ns | fluorescence lifetime (in CCOCC): 4.4 ns | fluorescence lifetime (in CN(C)C=O): 5.1 ns | fluorescence lifetime (in CO): 0.76 ns | fluorescence lifetime (in COCCOC): 1.18 ns | fluorescence lifetime (in CS(C)=O): 4.74 ns | fluorescence lifetime (in Cc1ccccc1): 2.81 ns | fluorescence lifetime (in Cc1ccccc1C): 2.7 ns | fluorescence lifetime (in ClC(Cl)Cl): 4.71 ns | fluorescence lifetime (in ClCCl): 6.11 ns | fluorescence lifetime (in NC=O): 2.35 ns | fluorescence lifetime (in OC1CCCCC1): 4.88 ns | fluorescence lifetime (in OCCO): 0.41 ns | fluorescence lifetime (in c1ccccc1): 2.97 ns

CCCCC#Cc1cccc2cc(CCCC)c3cc(-c4cc[b-]5c(c4)c(CCCC)cc4cccc(C#CCCCC)[n+]54)cc[b-]3[n+]12
fluorescence lifetime (in C1CCCCC1): 4 ns
